Experimental findings from patent US10683269B2 (MISSION THERAPEUTICS LIMITED, priority 2016, dated 2020) are described below.

T1 sequence (Q93009 whole entry): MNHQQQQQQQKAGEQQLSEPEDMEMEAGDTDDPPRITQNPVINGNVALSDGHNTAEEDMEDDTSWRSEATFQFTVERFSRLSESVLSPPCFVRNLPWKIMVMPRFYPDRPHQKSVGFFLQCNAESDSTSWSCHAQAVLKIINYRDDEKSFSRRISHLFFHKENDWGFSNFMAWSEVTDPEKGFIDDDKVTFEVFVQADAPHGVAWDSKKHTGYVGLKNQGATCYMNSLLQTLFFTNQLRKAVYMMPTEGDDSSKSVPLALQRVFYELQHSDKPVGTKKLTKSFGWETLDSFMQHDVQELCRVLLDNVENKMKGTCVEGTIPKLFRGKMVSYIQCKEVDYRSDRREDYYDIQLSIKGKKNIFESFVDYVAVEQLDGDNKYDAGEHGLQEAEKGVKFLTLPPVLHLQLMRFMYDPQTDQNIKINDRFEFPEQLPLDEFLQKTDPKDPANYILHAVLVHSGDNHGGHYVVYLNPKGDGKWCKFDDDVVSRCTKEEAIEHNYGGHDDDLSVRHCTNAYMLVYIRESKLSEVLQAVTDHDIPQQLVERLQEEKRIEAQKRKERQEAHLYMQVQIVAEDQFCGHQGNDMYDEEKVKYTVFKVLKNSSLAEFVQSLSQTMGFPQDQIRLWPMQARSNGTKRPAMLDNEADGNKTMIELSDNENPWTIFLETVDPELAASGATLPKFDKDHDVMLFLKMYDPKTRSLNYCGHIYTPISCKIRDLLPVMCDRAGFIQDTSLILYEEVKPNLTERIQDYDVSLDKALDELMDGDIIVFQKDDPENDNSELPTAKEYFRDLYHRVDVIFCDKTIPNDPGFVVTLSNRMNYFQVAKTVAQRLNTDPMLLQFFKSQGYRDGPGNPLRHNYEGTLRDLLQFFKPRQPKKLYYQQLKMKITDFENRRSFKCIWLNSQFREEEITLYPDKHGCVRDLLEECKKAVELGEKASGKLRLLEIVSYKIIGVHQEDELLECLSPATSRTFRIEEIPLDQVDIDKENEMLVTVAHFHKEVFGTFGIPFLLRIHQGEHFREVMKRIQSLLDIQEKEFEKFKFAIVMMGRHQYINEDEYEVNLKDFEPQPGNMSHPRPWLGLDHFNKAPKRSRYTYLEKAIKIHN

This assay concerns the target T1, USP7 (Homo sapiens, UniProt Q93009).
T1 construct: The USP7 construct was PCR amplified and cloned into a pFLAG-CMV-6a vector (Sigma-Aldrich) with an N-terminal FLAG tag; made in house; host or cells: HEK293T
The assay can be described thus: USP7 biochemical IC50 assay (fluorescence polarisation, TAMRA labelled peptide linked to ubiquitin via an iso-peptide bond). To be noted: 30 min pre-incubation of enzyme and compound, read after 2 hr incubation at room temperature, read-out: IC50 range. The procedure, abridged:
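Fluorescence polarisation at 540 nm excitation/590 nm emission, read immediately and after 2 hr at room temperature, following addition of 50 nM TAMRA-labelled iso-peptide ubiquitin substrate.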
On the technique in general: Fluorescence polarisation rises when a labelled molecule tumbles more slowly, as on binding a larger partner.
`COC(CO)CNc1cc2c(c(-c3ccc(C#N)cc3)c1)CN(C#N)C2` (stereo not drawn) [Example 284, 4-(4-Cyanophenyl)-6-((3-hydroxy-2-methoxypropyl)amino)isoindoline-2-carbonitrile]: the IC50 fell in the range of 1 to 10 µM. In the case of `CN(C)c1cc2c(c(-c3ccc(C#N)cc3C(N)=O)c1)CN(C#N)C2` [Example 285, 5-Cyano-2-(2-cyano-6-(dimethylamino)isoindolin-4-yl)benzamide], the IC50 fell in the range of 1 to 10 µM.

Consider `CC(O)CNc1cc2c(c(-c3ccc(C#N)cc3)c1)CN(C#N)C2` (stereo not drawn) [Example 286, 4-(4-Cyanophenyl)-6-((2-hydroxypropyl)amino)isoindoline-2-carbonitrile], for which the IC50 was 1 to 10 µM. As to `CC(C)(O)CNc1cc2c(c(-c3ccc(C#N)cc3)c1)CN(C#N)C2` [Example 287, 4-(4-cyanophenyl)-6-((2-hydroxy-2-methylpropyl)amino)iso-indoline-2-carbonitrile], the IC50 lay in the range of 1 to 10 µM.

For `COC(C)(O)CNc1cc2c(c(-c3ccc(C#N)cc3)c1)CN(C#N)C2` (stereo not drawn) [Example 288, 4-(4-cyanophenyl)-6-((2-hydroxy-2-methoxypropyl)amino)iso-indoline-2-carbonitrile], the IC50 was 1 to 10 µM. In the case of `Cc1nc2c(c(-c3cccc(N4CCCC4=O)c3)n1)CN(C#N)C2` [Example 289, 2-methyl-4-(3-(2-oxopyrrolidin-1-yl)phenyl)-5,7-dihydro-6H-pyrrolo[3,4-d]pyrimidine-6-carbonitrile], the 50% inhibitory concentration (IC50) lay in the range of 1 to 10 µM. As for `Cn1nccc1CNc1nc2c(c(-c3cccc(N4CCCC4=O)c3)n1)CN(C#N)C2` [Example 290, 2-(((1-methyl-1H-pyrazol-5-yl)methyl)amino)-4-(3-(2-oxopyrrolidin-1-yl)phenyl)-5,7-dihydro-6H-pyrrolo[3,4-d]pyrimidine-6-carbonitrile], the figure is 1 to 10 µM; as for `N#CN1Cc2nc(NCCO)nc(-c3cccc(N4CCCC4=O)c3)c2C1` [Example 291, 2-((2-hydroxyethyl)amino)-4-(3-(2-oxopyrrolidin-1-yl)phenyl)-5,7-dihydro-6H-pyrrolo[3,4-d]pyrimidine-6-carbonitrile], < 1 µM. As for `N#CN1Cc2nc(NCCO)nc(-c3cccc(N4CCOC4=O)c3)c2C1` [Example 292, 2-((2-hydroxyethyl)amino)-4-(3-(2-oxooxazolidin-3-yl)phenyl)-5,7-dihydro-6H-pyrrolo[3,4-d]pyrimidine-6-carbonitrile], the figure is < 1 µM; as for `CNC(=O)c1cc2c(c(-c3cc(OC)cnc3C#N)c1)CN(C#N)C2` [Example 293, 2-cyano-7-(2-cyano-5-methoxypyridin-3-yl)-N-methylisoindoline-5-carboxamide], 1 to 10 µM. To `N#Cc1cc(-c2cn[nH]c2)ccc1-c1cccc2c1CN(C#N)C2` [Example 294, 4-(2-cyano-4-(1H-pyrazol-4-yl)phenyl)isoindoline-2-carbonitrile] belongs 1 to 10 µM; to `CN1CCCC(CN(C)c2nc3c(c(N4CCc5cccnc5C4)n2)CN(C#N)C3)C1` (stereo not drawn) [Example 295, 4-(5,8-dihydro-1,7-naphthyridin-7(6H)-yl)-2-(methyl((1-methylpiperidin-3-yl)methyl)amino)-5,7-dihydro-6H-pyrrolo[3,4-d]pyrimidine-6-carbonitrile], 1 to 10 µM; to `N#Cc1cc2c(c(-c3ccc(F)cc3C(N)=O)c1)CN(C#N)C2` [Example 296, 2-(2,6-dicyanoisoindolin-4-yl)-5-fluorobenzamide], 1 to 10 µM.

Regarding `N#Cc1cc(F)c(-c2cc(C#N)cc3c2CN(C#N)C3)c(C(N)=O)c1` [Example 297, 5-cyano-2-(2,6-dicyanoisoindolin-4-yl)-3-fluorobenzamide], the IC50 was 1 to 10 µM. To `N#Cc1ccc(N2CCOC2=O)cc1-c1cccc2c1CN(C#N)C2` [Example 298, 4-(2-cyano-5-(2-oxooxazolidin-3-yl)phenyl)isoindoline-2-carbonitrile] belongs 1 to 10 µM.

Take `N#Cc1ccc(N2CCCC2=O)cc1-c1cccc2c1CN(C#N)C2` [Example 299, 4-(2-cyano-5-(2-oxopyrrolidin-1-yl)phenyl)isoindoline-2-carbonitrile]: the IC50 lay in the range of 1 to 10 µM. As for `N#CN1Cc2ncnc(-c3cccc(N4CCNC4=O)c3)c2C1` [Example 300, 4-(3-(2-oxoimidazolidin-1-yl)phenyl)-5,7-dihydro-6H-pyrrolo[3,4-c]pyrimidine-6-carbonitrile], the figure is 1 to 10 µM; as for `N#Cc1cc(F)c(-c2cccc3c2CN(C#N)C3)c(C(N)=O)c1` [Example 301, 5-cyano-2-(2-cyanoisoindolin-4-yl)-3-fluorobenzamide], 1 to 10 µM.

For orientation: IC50 means the concentration at which inhibition is half-maximal.
